Results on 22 compounds are retold here after patent EP4029501A1, “COMBINATION OF POLYAROMATIC UREA DERIVATIVES AND GLUCOCORTICOID OR HDAC INHIBITOR FOR THE TREATMENT OF DISEASES OR CONDITIONS ASSOCIATED WITH MUSCLE CELLS AND/OR SATELLITE CELLS” (Anagenesis Biotechnologies, priority 2021, dated 2022).

This assay deals with muscle progenitors derived from DMD hiPSC. The assay can be described thus: Myotube assay: total myotube area per well (alpha-actinin staining). In kind it is cell-based, human. To be noted: Homo sapiens, Myotube, 72 h, DMD or WT cell source not given; for Emax: efficacy, MA = normalized Myotube Area, 3 days incubation; for EC50: myogenic activity, half-maximal generation of myotubes, 10 points dose-response 1.5 nM to 30 µM, 3 days. As to the method: An in vitro assay for assessing the efficacy of compounds for use in treating, ameliorating, delaying, curing and/or preventing a disease or condition associated with muscle cells and/or satellite cells is described in example 78. Herein, the generation of myotubes and satellite cells after adding a compound to a myotube assay workflow is assessed. Said myotube assay workflow is derived from wild-type or DMD human induced pluripotent stem cells (WT hiPSC or DMD hiPSC). Before the addition of said compound, the assay comprises satellite-like cells, but no significant amount of myotubes.
The efficacy of said compound for use in treating, ameliorating, delaying, curing and/or preventing a disease or condition associated with muscle cells and/or satellite cells is positively correlated with the generation of myotubes (i.e. the increase of the area occupied by myotubes on the assay) and/or satellite cells (i.e. the increase of the number of satellite cells) in the assay after adding said compound. The generation of myotubes by the addition of said compound is expressed as the EC50 value, the concentration of said compound that corresponds with the half-maximal generation of myotubes, and the MA (normalized myotube area) value, the normalized area occupied by generated myotubes on the assay. […] Since muscle cells are formed from myotubes during myogenesis, the generation of myotubes in the assay is a good indicator of the ability of said compound to induce the formation of functional muscle cells in vivo. The number of satellite cells is measured as the percentage of Pax7 positive cells, relative to the total number of cells in the assay, as shown in Figure 3. The percentage of Pax7 is a good indicator of the ability of said compound to induce the formation of satellite cells which are able to play a role in muscle repair and regeneration in vivo.
DMD human induced pluripotent stem cells (hereafter "DMD hiPSC"), generated from the NCRM-1 hiPSC WT cell line by gene editing, or WT human induced pluripotent stem cells (hereafter "WT hiPSC"), being NCRM-1 hiPSC wt cell line, have been differentiated according to Chal et al. 2015, 2016, to produce muscle progenitors (hereafter "hMP"). The hMP population contains satellite-like cells (i.e Pax7-positive cells) and satellite cells' progenies (i.e. Myogenin-positive cells).
Figure 1 provides an example of a Myotube assay workflow. At day 0, hMP are thawed and 3.1 million cells are plated into a T75-flask coated with hESC-qualified Matrigel™ (Corning) in SkGM proliferating medium (PromoCells), supplemented with 5 µM Y-27632 (Tocris Bioscience). On day 2, SkGM proliferating medium is refreshed. On day 4, hMP are harvested and transferred into a 384-well plate coated with collagen type I at a density of 3500 cells/well in a DMEM-based medium, containing 5% of knockout serum replacement (Gibco), 1% PenStrep (Gibco), 1% MEM NEAA (Gibco) and 0.1 mM 2-mercaptoethanol (Gibco) (hereafter "K5 medium") and 5 µM Y-27632. Compounds to be tested are then added in the medium and incubated for 3 days at 37°C. On day 7, cells are fixed and immunostained. For example, myotubes (alpha-actinin staining) and satellite-like (Pax7 staining) cells can be analyzed for total myotube area per well or Pax7-positive cell quantification.
DMD hMP were put in the Myotube assay according to the workflow described in Example 2.1. In particular, compound (i) was added at concentrations ranging from 1.5 nM to 30 µM, starting from day 4. hMP were cultivated for three more days in presence of compound (i), then fixed and analyzed for quantification of total myotube area per well. Duplicates of each condition were averaged.

Molecules are shown by their SMILES.

Take `Cc1cc(NC(=O)Nc2ccc(Oc3ccnc4[nH]c(=O)cnc34)cc2F)n(-c2ccccc2)n1` [(a), 1-(2-fluoro-4-((3-oxo-3,4-dihydropyrido[2,3-b]pyrazin-8-yl)oxy)phenyl)-3-(3-methyl-1-phenyl-1 H-pyrazol-5-yl)urea]: the Emax (commonly the size of the effect at its maximum, as opposed to the concentration needed) was 25 to 50% and the EC50 (usually the concentration needed to bring the measured effect to its halfway point) was in the range of 500 to 1000 nM.
On the same counts, the results for `CNC(=O)c1ccc(Oc2cccc(NC(=O)Nc3cc(C(C)(C)C)nn3-c3ccccc3)c2)cn1` [(ab), 5-(3-(3-(3-(tert-butyl)-1-phenyl-1H-pyrazol-5-yl)ureido)phenoxy)-N-methylpicolinamide] are 50 to 75% and 500 to 1000 nM.
Turning to `CC(C)(C)c1cc(NC(=O)Nc2ccc(Oc3ccccc3)cc2F)n(-c2ccccc2)n1` [(ac), 1-(3-(tert-butyl)-1-phenyl-1H-pyrazol-5-yl)-3-(2-fluoro-4-phenoxyphenyl)urea], the maximum response (Emax) fell in the range of 50 to 75% and the EC50 lay within 1000 to 5000 nM.
`CC(C)(C)c1cc(NC(=O)Nc2ccc(Oc3ccncc3)cc2F)n(-c2ccccc2)n1` [(ad), 1-(3-(tert-butyl)-1-phenyl-1H-pyrazol-5-yl)-3-(2-fluoro-4-(pyridin-4-yloxy)phenyl)urea] displayed an Emax of 25 to 50% and an EC50 of 500 to 1000 nM.
In the case of `CC(=O)Nc1cc(Oc2ccc(NC(=O)Nc3cc(C(C)(C)C)nn3-c3ccccc3)c(F)c2)ccn1` [(ae), N-(4-(4-(3-(3-(tert-butyl)-1-phenyl-1H-pyrazol-5-yl)ureido)-3-fluorophenoxy)pyridin-2-yl)acetamide], the Emax was 50 to 75% and the EC50 is at least 5000 nM.
For `CC(C)(C)c1cc(NC(=O)Nc2ccc(Oc3ccc(F)cc3)cc2F)n(-c2ccccc2)n1` [(af), 1-(3-(tert-butyl)-1-phenyl-1 H-pyrazol-5-yl)-3-(2-fluoro-4-(4-fluorophenoxy)phenyl)urea], the Emax was in the range of 25 to 50% and the concentration giving a half-maximal response (EC50) is 1000 to 5000 nM.
The compound `CNC(=O)c1cc(Oc2ccc(NC(=O)Nc3cc(C(C)(C)C)nn3-c3ccc4ncccc4c3)c(SC)c2)ccn1` [(ag), 4-(4-(3-(3-(tert-butyl)-1-(quinolin-6-yl)-1H-pyrazol-5-yl)ureido)-3-(methylthio)phenoxy)-N-methylpicolinamide] displayed an Emax of at least 75% and a half-maximal effective concentration (EC50) of 1000 to 5000 nM.
On to `CSc1cc(Oc2ccnc3[nH]c(=O)cnc23)ccc1NC(=O)Nc1ncc(C(C)(C)C)s1` [(ah), 1-(5-(tert-butyl)thiazol-2-yl)-3-(2-(methylthio)-4-((3-oxo-3,4-dihydropyrido[2,3-b]pyrazin-8-yl)oxy)phenyl)urea], for which the Emax is at least 75% and the EC50 was at least 5000 nM.
`CNC(=O)c1cncc(Oc2ccc(NC(=O)Nc3cc(C(C)(C)C)nn3-c3ccccc3)c(SC)c2)c1` [(ai), 5-(4-(3-(3-(tert-butyl)-1-phenyl-1H-pyrazol-5-yl)ureido)-3-(methylthio)phenoxy)-N-methylnicotinamide] displayed a half-maximal effective concentration (EC50) of 500 to 1000 nM.
Compound `CC(C)(C)c1cc(NC(=O)Nc2ccc(Oc3ccnc4[nH]c(=O)cnc34)cc2Cl)n(-c2ccccc2)n1` [(ak), 1-(3-(tert-butyl)-1-phenyl-1H-pyrazol-5-yl)-3-(2-chloro-4-((3-oxo-3,4-dihydropyrido[2,3-b]pyrazin-8-yl)oxy)phenyl)urea] displayed an Emax of at least 75% and a concentration giving a half-maximal response (EC50) of at least 5000 nM.
For `Cc1cc(Oc2ccnc3[nH]c(=O)cnc23)ccc1NC(=O)Nc1cc(C(C)(C)C)nn1-c1ccccc1` [(al), 1-(3-(tert-butyl)-1-phenyl-1 H-pyrazol-5-yl)-3-(2-methyl-4-((3-oxo-3,4-dihydropyrido[2,3-b]pyrazin-8-yl)oxy)phenyl)urea] the same measures were at least 75% and at least 5000 nM.
For `CCSc1cc(Oc2ccnc3[nH]c(=O)cnc23)ccc1NC(=O)Nc1cc(C(C)(C)C)nn1-c1ccccc1` [(am), 1-(3-(tert-butyl)-1-phenyl-1 H-pyrazol-5-yl)-3-(2-(ethylthio)-4-((3-oxo-3,4-dihydropyrido[2,3-b]pyrazin-8-yl)oxy)phenyl)urea] the same measures were at least 75% and under 500 nM.
Turning to `CSc1cc(Oc2ccnc3c2CCC(=O)N3)ccc1NC(=O)Nc1cc(C(C)(C)C)nn1-c1ccccc1` [(an), 1-(3-(tert-butyl)-1-phenyl-1H-pyrazol-5-yl)-3-(2-(methylthio)-4-((7-oxo-5,6,7,8-tetrahydro-1,8-naphthyridin-4-yl)oxy)phenyl)urea], the Emax is at least 75% and the EC50 was under 500 nM.
As for `CSc1cc(Oc2ccnc3[nH]c(=O)cnc23)ccc1NC(=O)Nc1cc(C(C)(C)C)nn1-c1ccc(Cl)cc1` [(ao), 1-(3-(tert-butyl)-1-(4-chlorophenyl)-1H-pyrazol-5-yl)-3-(2-(methylthio)-4-((3-oxo-3,4-dihydropyrido[2,3-b]pyrazin-8-yl)oxy)phenyl)urea], the maximal response (Emax) was at least 75% and the 50% effective concentration (EC50) is at least 5000 nM.
On the same counts, the results for `CNC(=O)c1ccc(Oc2ccc(NC(=O)Nc3cc(C(C)(C)C)nn3-c3ccccc3)c(SC)c2)cn1` [(ap), 5-(4-(3-(3-(tert-butyl)-1-phenyl-1H-pyrazol-5-yl)ureido)-3-(methylthio)phenoxy)-N-methylpicolinamide] are 25 to 50% and 500 to 1000 nM.
On the same counts, the results for `CSc1cc(Oc2ccnc(NC(C)=O)c2)ccc1NC(=O)Nc1cc(C(C)(C)C)nn1-c1ccccc1` [(aq), N-(4-(4-(3-(3-(tert-butyl)-1-phenyl-1H-pyrazol-5-yl)ureido)-3-(methylthio)phenoxy)pyridin-2-yl)acetamide] are at least 75% and 500 to 1000 nM.
For `CSc1cc(Oc2ccnc3[nH]c(=O)cnc23)ccc1NC(=O)Nc1cc(C(C)(C)C)nn1-c1ccccn1` [(ar), 1-(3-(tert-butyl)-1-(pyridin-2-yl)-1H-pyrazol-5-yl)-3-(2-(methylthio)-4-((3-oxo-3,4-dihydropyrido[2,3-b]pyrazin-8-yl)oxy)phenyl)urea] the same measures were at least 75% and at least 5000 nM.
On to `CSc1cc(Oc2ccnc3[nH]c(=O)cnc23)ccc1NC(=O)Nc1cc(C(C)(C)C)nn1-c1cccc(Cl)c1` [(as), 1-(3-(tert-butyl)-1-(3-chlorophenyl)-1H-pyrazol-5-yl)-3-(2-(methylthio)-4-((3-oxo-3,4-dihydropyrido[2,3-b]pyrazin-8-yl)oxy)phenyl)urea], for which the Emax is at least 75% and the EC50 is under 500 nM.
On the same counts, the results for `CSc1cc(Oc2ccnc3[nH]c(=O)cnc23)ccc1NC(=O)Nc1cc(C(C)(C)C)nn1-c1ccccc1Cl` [(at), 1-(3-(tert-butyl)-1-(2-chlorophenyl)-1H-pyrazol-5-yl)-3-(2-(methylthio)-4-((3-oxo-3,4-dihydropyrido[2,3-b]pyrazin-8-yl)oxy)phenyl)urea] are at least 75% and at least 5000 nM.
For `CSc1cc(Oc2ccnc3c2ncc(=O)n3C)ccc1NC(=O)Nc1cc(C(C)(C)C)nn1-c1ccccc1` [(au), 1-(3-(tert-butyl)-1-phenyl-1H-pyrazol-5-yl)-3-(4-((4-methyl-3-oxo-3,4-dihydropyrido[2,3-b]pyrazin-8-yl)oxy)-2-(methylthio)phenyl)urea] the same measures were at least 75% and at least 5000 nM.
The compound `COc1ccccc1-n1nc(C(C)(C)C)cc1NC(=O)Nc1ccc(Oc2ccnc3[nH]c(=O)cnc23)cc1SC` [(av), 1-(3-(tert-butyl)-1-(2-methoxyphenyl)-1H-pyrazol-5-yl)-3-(2-(methylthio)-4-((3-oxo-3,4-dihydropyrido[2,3-b]pyrazin-8-yl)oxy)phenyl)urea] gave a maximal effect (Emax) of at least 75%.
The compound `COc1cccc(-n2nc(C(C)(C)C)cc2NC(=O)Nc2ccc(Oc3ccnc4[nH]c(=O)cnc34)cc2SC)c1` [(aw), 1-(3-(tert-butyl)-1-(3-methoxyphenyl)-1 H-pyrazol-5-yl)-3-(2-(methylthio)-4-((3-oxo-3,4-dihydropyrido[2,3-b]pyrazin-8-yl)oxy)phenyl)urea] registered a maximal response (Emax) of at least 75% and a half-maximal effective concentration (EC50) of 500 to 1000 nM.
